Test results taken from patent US20190313644A1, “METHOD FOR FRUIT THINNING” (Adama Agan Ltd., priority 2015, published 2019).

Tests used:
[1] = system: Golden Delicious variety of apples; test: Photosynthetic activity levels of the fruit bearing tree after the first application; format: in vivo
Method: The experiments were conducted on the Golden Delicious variety of apples in Germany and Italy. The first application of metamitron was applied to the fruit trees in May when the fruit was at fruiting stage BBCH69-BBCH72. The second application of metamitron was applied, if applicable, five days after the first application. […] Based on this and on the predicted meteorological data for the time of the second application, the second application should be applied at a high dose in order to effectively thin the fruit bearing tree. […] No over-thinning was observed.

[2] = system: Golden Delicious variety of apples; test: Fruit thinning field trial, first and optional second application of metamitron; format: in vivo; settings: for Thinning Effect (%): vs untreated control
Method: A formulation of metamitron in the form of a soluble granule was diluted to the desired concentration with water. The following concentrations were prepared: • 1.1 Kg/ha metamitron (low dosage) • 1.65 Kg/ha metamitron (medium dosage) • 2.2 Kg/ha metamitron (high dosage) The experiments were conducted on the Golden Delicious variety of apples in Germany and Italy. The first application of metamitron was applied to the fruit trees in May when the fruit was at fruiting stage BBCH69-BBCH72. The second application of metamitron was applied, if applicable, five days after the first application. Local meteorological data was obtained from local weather stations. The meteorological data was inputted into the MaluSim Carbon Balance Model of Lakso (described at […].cornell.edu/apple_thin_help.html, the contents of which are hereby incorporated by reference) in order to obtain the level of carbohydrates available in the fruit tree. The thinning effect is calculated by comparing the treated fruit trees with the untreated control as follows: […]

[3] = Germany, 1st application 1.65 Kg/ha, 2nd application 0 Kg/ha
[4] = Germany, 1st application 1.65 Kg/ha, 2nd application 1.1 Kg/ha
[5] = Germany, 1st application 1.65 Kg/ha, 2nd application 2.2 Kg/ha
[6] = Germany, 1st application 2.2 Kg/ha, 2nd application 0 Kg/ha
[7] = Germany, 1st application 2.2 Kg/ha, 2nd application 1.1 Kg/ha
[8] = Germany, 1st application 2.2 Kg/ha, 2nd application 1.65 Kg/ha
[9] = Germany, 1st application 2.2 Kg/ha, 2nd application 2.2 Kg/ha
[10] = Italy, 1st application 1.65 Kg/ha, 2nd application 0 Kg/ha
[11] = Italy, 1st application 1.65 Kg/ha, 2nd application 1.1 Kg/ha
[12] = Italy, 1st application 1.65 Kg/ha, 2nd application 2.2 Kg/ha
[13] = Italy, 1st application 2.2 Kg/ha, 2nd application 0 Kg/ha
[14] = Italy, 1st application 2.2 Kg/ha, 2nd application 2.2 Kg/ha

## Cc1nnc(-c2ccccc2)c(=O)n1N [metamitron]
[1]; Germany, after 1st application 1.65 Kg/ha
  Photosynthetic Activity levels: Low
[1]; Germany, after 1st application 2.2 Kg/ha
  Photosynthetic Activity levels: Low
[1]; Italy, after 1st application 1.65 Kg/ha
  Photosynthetic Activity levels: Low
[1]; Italy, after 1st application 2.2 Kg/ha
  Photosynthetic Activity levels: Low
[2]; [3]
  Fruit Load (fruits/tcsa): 11.20 fruits/tcsa
  Thinning Effect (%): 33.2%
[2]; [4]
  Fruit Load (fruits/tcsa): 11.42 fruits/tcsa
  Thinning Effect (%): 31.8%
[2]; [5]
  Fruit Load (fruits/tcsa): 6.83 fruits/tcsa
  Thinning Effect (%): 59.3%
[2]; [6]
  Fruit Load (fruits/tcsa): 11.44 fruits/tcsa
  Thinning Effect (%): 31.8%
[2]; [7]
  Fruit Load (fruits/tcsa): 11.40 fruits/tcsa
  Thinning Effect (%): 32.0%
[2]; [8]
  Fruit Load (fruits/tcsa): 11.98 fruits/tcsa
  Thinning Effect (%): 28.5%
[2]; [9]
  Fruit Load (fruits/tcsa): 8.07 fruits/tcsa
  Thinning Effect (%): 51.8%
[2]; [10]
  Fruit Load (fruits/tcsa): 12.33 fruits/tcsa
  Thinning Effect (%): 31.27%
[2]; [11]
  Fruit Load (fruits/tcsa): 12.30 fruits/tcsa
  Thinning Effect (%): 31.39%
[2]; [12]
  Fruit Load (fruits/tcsa): 9.58 fruits/tcsa
  Thinning Effect (%): 46.57%
[2]; [13]
  Fruit Load (fruits/tcsa): 12.67 fruits/tcsa
  Thinning Effect (%): 29.38%
[2]; [14]
  Fruit Load (fruits/tcsa): 9.37 fruits/tcsa
  Thinning Effect (%): 47.75%
